Assay results taken from US5478864A, “Method for disinfection using a 1,n-bis(N^5 -trifluoromethyl-phenyl-N^1 -biguanido)-alkane” (Mitsubishi Materials Corp., priority 1991, dated 1995).
Converted amounts (≈) assume the structure as drawn. Where two headings read alike, the source gives them in different places.

What was measured:
[1] = test system: Escherichia coli IID 951; assay: minimum growth inhibition concentration, agar dilution; assay type: cell-based; conditions: IID951, Mueller-Hinton agar, IID 951, read-out: MIC
Experimental: (§1) Germicidal activity of the compound prepared in Example 1 (Compound I) was evaluated by the minimum growth inhibition concentration method (based on the standard method stipulated by Japan Society of Chemotherapy) and the phenol coefficient method.
(§2) A portion of the digluconate salt of the compound of Example 1 was dissolved in water and the solution was heated to dryness on a water bath. The dried salt was dissolved in acetic acid (potentiometric titration grade) and the concentration thereof was determined by potentiometric titration using a perchloric acid solution. The gluconate acid salt solution, whose concentration was thus determined, was diluted to predetermined concentrations with sterilized water. Each 1 ml of the solution of each concentration was placed in a Petri dish, 9 ml of Mueller-Hinton agar (supplied by Difco) was added thereto and well mixed. Thus sensitivity test media were prepared. The concentrations of the compound were 200 μg/ml and 2^n times wherein (n=-8 to 2). Separately, microorganism strains indicated in Table 1 were subcultured in propagation media (using Mueller-Hinton broth supplied by Difco) at 37° C. for 24 hours. The microorganism concentration was adjusted to 10^6 /ml. The thus obtained cultures were respectively inoculated on a series of sensitivity measuring culture media using an inoculation rod. […] The results are shown in Table 1 together with the result on chlorhexidine as a control.
(§3) Compounds of formula I, wherein the trifluoromethyl group is located at the p-position and n is 2, 3, 5, 8 and 11, were prepared starting from ethylene diamine dichloride, 1,3-propane diamine dichloride, 1,5-pentane diamine dichloride, 1,8-octane diamine dichloride or 1,11-undecane diamine dichloride, sodium dicyanamide and 4-trifluoromethyl aniline hydrochloride in accordance with the procedures as described above and minimum growth inhibition concentration (MIC) was determined in the same manner as above.
(§4) Disinfecting effect of the above-prepared compounds was tested by measurement of minimum growth inhibition concentration and by the test for immediate effect in the same manner as in Example 3.
(§5) Compounds of formula I, wherein the trifluoromethyl group is located at the m-position and n is 2, 3, 5 and 8, 11 were prepared starting from ethylene diamine dihydrochloride, 1,3-propane diamine dihydrochloride, 1,5-pentane diamine dihydrochloride, 1,8-octane diamine dihydrochloride or 1,11-undecane diamine dihydrochloride, sodium dicyanamide and 3-trifluoromethylaniline hydrochloride in accordance with the procedures of Example 4 and germicidal activity thereof were determined in the same manner.

[2] = test system: Pseudomonas aeruginosa IID 1042; assay: as above; assay type: cell-based
Experimental: as §1, §2, §3, §4, §5

[3] = test system: Serratia marcescens IID 602; assay: as above; assay type: cell-based; conditions: IID602, Mueller-Hinton agar, IID 602, read-out: MIC
Experimental: as §1, §2, §3, §4, §5

[4] = test system: Staphylococcus aureus FDA 209-P; assay: as above; assay type: cell-based; conditions: FDA209, Mueller-Hinton agar
Experimental: as §1, §2, §3, §4, §5

[5] = test system: dental plaque; conditions: Warner et al, 1973; cited from earlier work
[6] = test system: Achromobacter xylosoxidans RIMD 0101001; assay: minimum growth inhibition concentration, agar dilution; assay type: cell-based; conditions: RIMD0101001, Mueller-Hinton agar, digluconate
Experimental: as §1, §2, §4

[7] = test system: Alcaligenes faecalis IPO 13111; assay: as above; assay type: cell-based; conditions: IPO13111, Mueller-Hinton agar, digluconate
Experimental: as §1, §2, §4

[8] = test system: Escherichia coli IID 861; assay: as above; assay type: cell-based; conditions: IID861, Mueller-Hinton agar, digluconate, IID 861, read-out: MIC
Experimental: as §1, §2, §4

[9] = test system: Escherichia coli NIHJ JC-2; assay: as above; assay type: cell-based; conditions: NIHJJC2, Mueller-Hinton agar, digluconate, NIHJ JC-2, read-out: MIC
Experimental: as §1, §2, §4

[10] = test system: Flavobacterium meningosepticum RIMD 0614002; assay: as above; assay type: cell-based; conditions: Elizabethkingia meningoseptica, RIMD0614002; Mueller-Hinton agar; digluconate
Experimental: as §1, §2, §4

[11] = test system: Klebsiella pneumoniae IID 865; assay: as above; assay type: cell-based; conditions: IID865, Mueller-Hinton agar, digluconate, read-out: MIC
Experimental: as §1, §2, §4

[12] = test system: Proteus vulgaris IID 874; assay: as above; assay type: cell-based; conditions: IID874, Mueller-Hinton agar, digluconate
Experimental: as §1, §2, §4

[13] = test system: Pseudomonas aerugimosa (clinically collected); assay: as above; assay type: cell-based; conditions: Mueller-Hinton agar, digluconate
Experimental: as §1, §2, §4

[14] = test system: Pseudomonas cepacia (collected Chiba Univ.); assay: as above; assay type: cell-based; conditions: Burkholderia cepacia, Mueller-Hinton agar, digluconate
Experimental: as §1, §2, §4

[15] = test system: Staphylococcus epidermis IID 866; assay: as above; assay type: cell-based; conditions: IID866, Mueller-Hinton agar, digluconate, IID 866, read-out: MIC
Experimental: as §1, §2, §4

[16] = test system: Staphylococcus aureus (clin'ly col'ted MRSA); assay: minimum growth inhibition concentration, agar dilution (first MRSA line); assay type: cell-based; conditions: Mueller-Hinton agar, digluconate, clinically collected MRSA, first line, read-out: MIC
Experimental: as §1, §2, §4

[17] = test system: Staphylococcus aureus (clin'ly col'ted MRSA); assay: minimum growth inhibition concentration, agar dilution (second MRSA line); assay type: cell-based; conditions: Mueller-Hinton agar, digluconate, clinically collected MRSA
Experimental: as §1, §2, §4

[18] = test system: Escherichia coli IID 861; assay: test for immediate effect (phenol coefficient method); assay type: cell-based; conditions: of three runs, conc. 0.001%, 20° C.
Experimental: Immediate effect of this compound was evaluated in accordance with the phenol coefficient method described in "Directions for Hygienic Tests" compiled by the Ministry of Health and Welfare of Japan. The method is as follows. (1) Culture medium Each 10 ml of the bouillon described below was taken into test tubes and they were sterilized with high pressure steam at 120° C. for 20 minutes. (2) Test method Diluted solutions of a series of concentrations of the sample compound were prepared for each of microorganisms listed in Table 2. Each 10 ml of the solutions was put into an appraisal test tube and the test tubes were placed in a thermostat bath kept at 20° C. Each microorganism was subcultured in the above described bouillon medium for testing disinfectants for three generations (37° C. for 48 hours). Each 1 ml of each culture was placed in each of the above-described series of appraisal test tubes and well mixed. After 2.5, 5, 10 and 15 minutes, 0.1 ml of the content of each appraisal test tube was taken and inoculated onto each portion of the bouillon medium for testing disinfectants. […] Each test was carried out three times. Immediate effect of disinfectants was compared by number of test runs in which microorganism growth was observed. […]

[19] = Pseudomonas aeruginosa, IID1042, Mueller-Hinton agar, read-out: MIC

Compound | MIC [1] [µg/mL] | MIC [2, 19] [µg/mL] | MIC [3] [µg/mL] | MIC [4] [µg/mL] | also measured
N=C(NCCCNC(=N)NC(=N)Nc1cccc(C(F)(F)F)c1)NC(=N)Nc1cccc(C(F)(F)F)c1 [n = 3 (m-position)] | 3.13 (≈ 5.9 µM) | 50 (≈ 94.3 µM) | 12.5 (≈ 23.6 µM) | 3.13 (≈ 5.9 µM) | –
N=C(NCCCCCCCCCCCNC(=N)NC(=N)Nc1ccc(C(F)(F)F)cc1)NC(=N)Nc1ccc(C(F)(F)F)cc1 [n = 11 (p-position)] | 50 (≈ 77.8 µM) | 400 (≈ 622 µM) | 100 (≈ 156 µM) | 12.5 (≈ 19.4 µM) | –
N=C(NCCCCCCCCNC(=N)NC(=N)Nc1ccc(C(F)(F)F)cc1)NC(=N)Nc1ccc(C(F)(F)F)cc1 [n = 8 (p-position)] | 1.56 (≈ 2.6 µM) | 25 (≈ 41.6 µM) | 6.25 (≈ 10.4 µM) | 1.56 (≈ 2.6 µM) | –
N=C(NCCCCCCNC(=N)NC(=N)Nc1ccccc1)NC(=N)Nc1ccccc1 [bis-phenyl-substituted derivative] | – | – | – | – | antiplaque activity [5]: no antiplaque activity
N=C(NCCCCCCCCNC(=N)NC(=N)Nc1cccc(C(F)(F)F)c1)NC(=N)Nc1cccc(C(F)(F)F)c1 [n = 8 (m-position)] | 1.56 (≈ 2.6 µM) | 25 (≈ 41.6 µM) | 6.25 (≈ 10.4 µM) | 1.56 (≈ 2.6 µM) | –
N=C(NCCCCCCCCCCCNC(=N)NC(=N)Nc1cccc(C(F)(F)F)c1)NC(=N)Nc1cccc(C(F)(F)F)c1 [n = 11 (m-position)] | 25 (≈ 38.9 µM) | 400 (≈ 622 µM) | 100 (≈ 156 µM) | 12.5 (≈ 19.4 µM) | –
N=C(NCCCCCCNC(=N)NC(=N)NC1CCCCC1)NC(=N)NC1CCCCC1 [bis-cyclohexyl-substituted] | – | – | – | – | antiplaque activity [5]: at the same level as chlorhexidin or better
N=C(NCCCCCCNC(=N)NC(=N)NC12CC3CC(CC(C3)C1)C2)NC(=N)NC12CC3CC(CC(C3)C1)C2 [bis-1-adamanthyl-substituted derivatives] | – | – | – | – | antiplaque activity [5]: at the same level as chlorhexidin or better
N=C(NCCCCCCNC(=N)NC(=N)Nc1cccc(C(F)(F)F)c1)NC(=N)Nc1cccc(C(F)(F)F)c1 [Ex. 5, 1,6-bis(N^5-m-trifluoromethylphenyl-N^1-biguanido)-hexane] | 1.56 (≈ 2.72 µM) | 25 (≈ 43.7 µM) | 6.25 (≈ 10.9 µM) | 0.78 (≈ 1.36 µM) | MIC [6]: 25 µg/mL (≈ 43.7 µM); MIC [7]: 6.25 µg/mL (≈ 10.9 µM); MIC [8]: 1.56 µg/mL (≈ 2.72 µM); MIC [9]: 1.56 µg/mL (≈ 2.72 µM); MIC [10]: 200 µg/mL (≈ 349 µM); MIC [11]: 1.56 µg/mL (≈ 2.72 µM); MIC [12]: 12.5 µg/mL (≈ 21.8 µM); MIC [13]: 25 µg/mL (≈ 43.7 µM); MIC [14]: 50 µg/mL (≈ 87.3 µM); MIC [15]: 1.56 µg/mL (≈ 2.72 µM); MIC ([2]; Mueller-Hinton agar, listed as n = 6 (m-position)): 25.0 µg/mL (≈ 43.7 µM); MIC [16]: 3.13 µg/mL (≈ 5.47 µM); MIC [17]: 1.56 µg/mL (≈ 2.72 µM); number of test runs in which microorganism growth was observed ([18]; contact time 2.5 min): 2; number of test runs in which microorganism growth was observed ([18]; contact time 5.0 min): 1; number of test runs in which microorganism growth was observed ([18]; contact time 10.0 min): 0; number of test runs in which microorganism growth was observed ([18]; contact time 15.0 min): 0; antiplaque activity [5]: superior antiplaque activity at lower concentrations
N=C(NCCCCCNC(=N)NC(=N)Nc1ccc(C(F)(F)F)cc1)NC(=N)Nc1ccc(C(F)(F)F)cc1 [n = 5 (p-position)] | 3.13 (≈ 5.6 µM) | 12.5 (≈ 22.4 µM) | 6.25 (≈ 11.2 µM) | 0.78 (≈ 1.4 µM) | –
N=C(NCCCCCNC(=N)NC(=N)Nc1cccc(C(F)(F)F)c1)NC(=N)Nc1cccc(C(F)(F)F)c1 [n = 5 (m-position)] | 3.13 (≈ 5.6 µM) | 12.5 (≈ 22.4 µM) | 6.25 (≈ 11.2 µM) | 0.78 (≈ 1.4 µM) | –
N=C(NCCNC(=N)NC(=N)Nc1cccc(C(F)(F)F)c1)NC(=N)Nc1cccc(C(F)(F)F)c1 [n = 2 (m-position)] | 12.5 (≈ 24.2 µM) | 200 (≈ 387 µM) | 50 (≈ 96.8 µM) | 12.5 (≈ 24.2 µM) | –
N=C(NCCNC(=N)NC(=N)Nc1ccc(C(F)(F)F)cc1)NC(=N)Nc1ccc(C(F)(F)F)cc1 [n = 2 (p-position)] | 12.5 (≈ 24.2 µM) | 200 (≈ 387 µM) | 50 (≈ 96.8 µM) | 25 (≈ 48.4 µM) | –
N=C(NCCCNC(=N)NC(=N)Nc1ccc(C(F)(F)F)cc1)NC(=N)Nc1ccc(C(F)(F)F)cc1 [n = 3 (p-position)] | 1.56 (≈ 2.94 µM) | 50 (≈ 94.3 µM) | 6.25 (≈ 11.8 µM) | 0.78 (≈ 1.47 µM) | –
